From ChEMBL document CHEMBL2069236, “Synthesis and biological evaluation of novel N-acyl substituted quinolin-2(1H)-one derivatives as potential antimicrobial agents” (2012)
Converted amounts (≈) assume the structure as drawn.

Tests used:
Format in all cases: functional
Bacillus subtilis = experiment: Antibacterial activity against Bacillus subtilis ATCC 6633 by disc diffusion method
Candida = experiment: Antifungal activity against Candida mycoderma by disc diffusion method
Escherichia coli = experiment: Antibacterial activity against Escherichia coli JM 109 by disc diffusion method
Staphylococcus aureus [1] = experiment: Antibacterial activity against Staphylococcus aureus ATCC 25923 by disc diffusion method
Candida albicans = experiment: Antifungal activity against Candida albicans ATCC 76615 by disc diffusion method
Bacillus = experiment: Antibacterial activity against Bacillus proteus by disc diffusion method
Staphylococcus aureus [2] = experiment: Antibacterial activity against methicillin-resistant Staphylococcus aureus N 315 by disc diffusion method
Staphylococcus aureus [3] = experiment: Ratio of streptomycin MIC to compound MIC for methicillin-resistant Staphylococcus aureus N 315

Row | SMILES | MIC (Bacillus subtilis) [µg/mL] | MIC (Candida) [µg/mL] | MIC (Escherichia coli) [µg/mL] | MIC (Staphylococcus aureus [1]) [µg/mL] | MIC (Candida albicans) [µg/mL] | MIC (Bacillus) [µg/mL] | MIC (Staphylococcus aureus [2]) [µg/mL] | Ratio (Staphylococcus aureus [3])
1 | Cl.O=C1CCc2c(cccc2NC(=O)CN(Cc2ccccc2)Cc2ccccc2)N1 | 32 | 256 | 64 | 128 | 128 | 32 | 128 | –
2 | Cl.O=C1CCc2c(cccc2NC(=O)CN2CCNCC2)N1 | 64 | 4 | 128 | 64 | 32 | 16 | 32 | 8
3 | CC(C)(C)NCC(=O)Nc1cccc2c1CCC(=O)N2.Cl | 256 | 32 | 32 | 32 | 16 | 256 | 128 | –
4 | Cl.O=C1CCc2c(cccc2NC(=O)Cn2cnc3ccccc32)N1 | 128 | 32 | 32 | 16 | 256 | 256 | 32 | 8
5 | Cl.O=C1CCc2c(cccc2NC(=O)CN2CCCC2)N1 | 32 | 128 | 32 | 32 | 32 | 128 | 32 | 8
6 | Cl.O=C1CCc2c(cccc2NC(=O)CN2CCCCC2)N1 | 16 | 256 | 32 | 32 | 128 | 128 | 64 | 8
7 | Cl.O=C1CCc2c(cccc2NC(=O)Cn2ccnc2)N1 | 32 | 16 | 64 | 16 | 16 | 64 | 64 | 8
8 | Cl.O=C1CCc2c(cccc2NC(=O)CNCc2ccccc2)N1 | 64 | 32 | 64 | 32 | 32 | 64 | 256 | –
9 | Cl.O=C1CCc2c(cccc2NC(=O)CN2CCOCC2)N1 | 128 | 32 | 32 | 128 | 64 | 128 | 32 | 8
10 | CN[C@@H]1[C@H](O[C@H]2[C@H](O[C@H]3[C@H](O)[C@@H](O)[C@H](N=C(N)N)[C@@H](O)[C@@H]3N=C(N)N)O[C@@H](C)[C@]2(O)C=O)O[C@@H](CO)[C@H](O)[C@H]1O [STREPTOMYCIN] | 32 (≈ 55 µM) | – | 16 (≈ 27.5 µM) | 32 (≈ 55 µM) | – | 64 (≈ 110 µM) | 512 (≈ 880 µM) | –
11 | CCCN(CCC)CC(=O)Nc1cccc2c1CCC(=O)N2.Cl | 64 | 16 | 64 | 8 | 256 | 256 | 64 | –
12 | CC(C)(C)OC(=O)N1CCN(CC(=O)Nc2cccc3c2CCC(=O)N3)CC1.Cl | 32 | 32 | 16 | 64 | 128 | 128 | 32 | 8
13 | OC(Cn1cncn1)(Cn1cncn1)c1ccc(F)cc1F [FLUCONAZOLE] | – | 8 (≈ 26.1 µM) | – | – | 4 (≈ 13.1 µM) | – | – | –
14 | CCN(CC)CC(=O)Nc1cccc2c1CCC(=O)N2.Cl | 32 | 32 | 8 | 128 | 256 | 256 | 64 | –
15 | Cl.O=C1CCc2c(cccc2NC(=O)CN(CCO)CCO)N1 | 128 | 128 | 128 | 128 | 4 | 128 | 64 | –
